According to ChEMBL document CHEMBL1201862, “PubChem BioAssay data set” (2004):
Calls of active or inactive are those of the source.

Experiments:
[1] = target: T1, Polyadenylate-binding protein 1 (Homo sapiens, UniProt P11940); assay: PABP1 MLLE–PAM2 binding inhibitor potency, dose response, biochemical, fluorescence polarization, FITC-PAM2 peptide (AID 602259); assay type: functional; settings: read-out: IC50_Mean
[2] = target: T2, Heat shock factor protein 1 (Mus musculus, UniProt P38532); assay: HSF1 potentiators in luciferase reporter cells, confirmation, cell-based, NIH3T3, luminescence, dose retest (AID 435004); assay type: functional;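 also: stress induced by proteasome inhibitor MG132 added 30 min after compound; luciferase reporter driven by HSF1 response element in NIH3T3 cells; actives raise luminescence as potentiators of the MG132 stress response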
T2 sequence (P38532 whole entry): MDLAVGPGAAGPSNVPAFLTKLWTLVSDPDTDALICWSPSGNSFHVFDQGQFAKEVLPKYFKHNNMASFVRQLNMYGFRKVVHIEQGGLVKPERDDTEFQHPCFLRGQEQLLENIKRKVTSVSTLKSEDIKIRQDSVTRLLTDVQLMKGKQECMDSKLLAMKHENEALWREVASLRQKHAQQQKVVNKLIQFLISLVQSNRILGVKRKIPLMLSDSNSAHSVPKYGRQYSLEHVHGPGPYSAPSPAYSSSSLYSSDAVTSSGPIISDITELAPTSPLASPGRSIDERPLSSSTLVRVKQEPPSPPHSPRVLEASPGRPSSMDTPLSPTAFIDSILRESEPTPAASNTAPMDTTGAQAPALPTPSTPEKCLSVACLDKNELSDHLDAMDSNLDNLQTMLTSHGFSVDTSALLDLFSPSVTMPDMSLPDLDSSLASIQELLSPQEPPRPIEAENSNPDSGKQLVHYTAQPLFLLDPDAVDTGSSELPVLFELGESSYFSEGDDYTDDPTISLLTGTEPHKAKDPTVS

[3] = target: T1, Polyadenylate-binding protein 1; assay: PABP1 MLLE–PAM2 interaction inhibitors, dose response, miRNA deadenylation inhibitor project, biochemical, fluorescence polarization, Cy5-PAM2 peptide, secondary (AID 602260); assay type: functional; settings: read-out: IC50_Mean
[4] = target: T3, Histone-lysine N-methyltransferase NSD2 (Homo sapiens, UniProt O96028); assay type: biochemical
T3 sequence (O96028 whole entry): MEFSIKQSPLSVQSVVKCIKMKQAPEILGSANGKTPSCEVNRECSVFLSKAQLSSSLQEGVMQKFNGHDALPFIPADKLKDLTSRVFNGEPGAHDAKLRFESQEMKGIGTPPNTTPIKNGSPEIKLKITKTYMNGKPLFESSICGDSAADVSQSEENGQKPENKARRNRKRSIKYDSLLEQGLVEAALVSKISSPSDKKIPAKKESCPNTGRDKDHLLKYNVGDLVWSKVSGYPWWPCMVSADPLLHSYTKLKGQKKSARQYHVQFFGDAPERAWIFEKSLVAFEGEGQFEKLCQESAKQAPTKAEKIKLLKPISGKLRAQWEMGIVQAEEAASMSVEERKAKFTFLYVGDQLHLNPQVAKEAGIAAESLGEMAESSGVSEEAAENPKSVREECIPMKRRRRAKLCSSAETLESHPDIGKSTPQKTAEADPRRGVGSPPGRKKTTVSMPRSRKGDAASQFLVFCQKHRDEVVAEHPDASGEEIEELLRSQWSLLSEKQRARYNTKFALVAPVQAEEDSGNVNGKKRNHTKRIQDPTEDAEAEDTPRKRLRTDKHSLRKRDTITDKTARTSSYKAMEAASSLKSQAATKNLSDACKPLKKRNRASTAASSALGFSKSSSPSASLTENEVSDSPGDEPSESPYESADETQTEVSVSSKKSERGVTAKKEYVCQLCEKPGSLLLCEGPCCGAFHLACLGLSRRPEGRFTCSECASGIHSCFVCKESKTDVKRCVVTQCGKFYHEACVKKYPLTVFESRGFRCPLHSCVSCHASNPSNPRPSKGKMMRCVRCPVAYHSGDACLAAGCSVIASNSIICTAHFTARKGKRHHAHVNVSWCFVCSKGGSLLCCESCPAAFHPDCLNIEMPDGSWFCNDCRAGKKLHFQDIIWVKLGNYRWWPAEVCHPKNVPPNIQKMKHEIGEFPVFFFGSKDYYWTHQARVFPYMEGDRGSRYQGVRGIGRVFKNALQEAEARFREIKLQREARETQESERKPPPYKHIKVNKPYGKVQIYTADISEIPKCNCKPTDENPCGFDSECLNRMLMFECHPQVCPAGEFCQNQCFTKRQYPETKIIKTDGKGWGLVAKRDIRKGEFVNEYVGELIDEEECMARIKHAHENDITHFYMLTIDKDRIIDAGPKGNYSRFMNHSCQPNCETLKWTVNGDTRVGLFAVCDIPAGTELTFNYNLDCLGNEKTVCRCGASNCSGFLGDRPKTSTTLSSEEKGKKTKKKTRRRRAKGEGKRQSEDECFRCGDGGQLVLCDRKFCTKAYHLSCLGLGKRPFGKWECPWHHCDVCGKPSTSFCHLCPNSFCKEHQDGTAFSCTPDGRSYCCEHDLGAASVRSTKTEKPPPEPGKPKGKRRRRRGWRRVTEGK

[5] = target: T4, Fatty acid synthase (Homo sapiens, UniProt P49327); assay: FAS thioesterase domain inhibitors, dose response, biochemical, endpoint fluorescence intensity, uHTS hits (AID 624327); assay type: functional;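 also: fluorescence from hydrolysis of an O-methyl fluorescein acyl ester substrate by the enzyme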
T4 sequence (P49327 whole entry, the tested form may be a part): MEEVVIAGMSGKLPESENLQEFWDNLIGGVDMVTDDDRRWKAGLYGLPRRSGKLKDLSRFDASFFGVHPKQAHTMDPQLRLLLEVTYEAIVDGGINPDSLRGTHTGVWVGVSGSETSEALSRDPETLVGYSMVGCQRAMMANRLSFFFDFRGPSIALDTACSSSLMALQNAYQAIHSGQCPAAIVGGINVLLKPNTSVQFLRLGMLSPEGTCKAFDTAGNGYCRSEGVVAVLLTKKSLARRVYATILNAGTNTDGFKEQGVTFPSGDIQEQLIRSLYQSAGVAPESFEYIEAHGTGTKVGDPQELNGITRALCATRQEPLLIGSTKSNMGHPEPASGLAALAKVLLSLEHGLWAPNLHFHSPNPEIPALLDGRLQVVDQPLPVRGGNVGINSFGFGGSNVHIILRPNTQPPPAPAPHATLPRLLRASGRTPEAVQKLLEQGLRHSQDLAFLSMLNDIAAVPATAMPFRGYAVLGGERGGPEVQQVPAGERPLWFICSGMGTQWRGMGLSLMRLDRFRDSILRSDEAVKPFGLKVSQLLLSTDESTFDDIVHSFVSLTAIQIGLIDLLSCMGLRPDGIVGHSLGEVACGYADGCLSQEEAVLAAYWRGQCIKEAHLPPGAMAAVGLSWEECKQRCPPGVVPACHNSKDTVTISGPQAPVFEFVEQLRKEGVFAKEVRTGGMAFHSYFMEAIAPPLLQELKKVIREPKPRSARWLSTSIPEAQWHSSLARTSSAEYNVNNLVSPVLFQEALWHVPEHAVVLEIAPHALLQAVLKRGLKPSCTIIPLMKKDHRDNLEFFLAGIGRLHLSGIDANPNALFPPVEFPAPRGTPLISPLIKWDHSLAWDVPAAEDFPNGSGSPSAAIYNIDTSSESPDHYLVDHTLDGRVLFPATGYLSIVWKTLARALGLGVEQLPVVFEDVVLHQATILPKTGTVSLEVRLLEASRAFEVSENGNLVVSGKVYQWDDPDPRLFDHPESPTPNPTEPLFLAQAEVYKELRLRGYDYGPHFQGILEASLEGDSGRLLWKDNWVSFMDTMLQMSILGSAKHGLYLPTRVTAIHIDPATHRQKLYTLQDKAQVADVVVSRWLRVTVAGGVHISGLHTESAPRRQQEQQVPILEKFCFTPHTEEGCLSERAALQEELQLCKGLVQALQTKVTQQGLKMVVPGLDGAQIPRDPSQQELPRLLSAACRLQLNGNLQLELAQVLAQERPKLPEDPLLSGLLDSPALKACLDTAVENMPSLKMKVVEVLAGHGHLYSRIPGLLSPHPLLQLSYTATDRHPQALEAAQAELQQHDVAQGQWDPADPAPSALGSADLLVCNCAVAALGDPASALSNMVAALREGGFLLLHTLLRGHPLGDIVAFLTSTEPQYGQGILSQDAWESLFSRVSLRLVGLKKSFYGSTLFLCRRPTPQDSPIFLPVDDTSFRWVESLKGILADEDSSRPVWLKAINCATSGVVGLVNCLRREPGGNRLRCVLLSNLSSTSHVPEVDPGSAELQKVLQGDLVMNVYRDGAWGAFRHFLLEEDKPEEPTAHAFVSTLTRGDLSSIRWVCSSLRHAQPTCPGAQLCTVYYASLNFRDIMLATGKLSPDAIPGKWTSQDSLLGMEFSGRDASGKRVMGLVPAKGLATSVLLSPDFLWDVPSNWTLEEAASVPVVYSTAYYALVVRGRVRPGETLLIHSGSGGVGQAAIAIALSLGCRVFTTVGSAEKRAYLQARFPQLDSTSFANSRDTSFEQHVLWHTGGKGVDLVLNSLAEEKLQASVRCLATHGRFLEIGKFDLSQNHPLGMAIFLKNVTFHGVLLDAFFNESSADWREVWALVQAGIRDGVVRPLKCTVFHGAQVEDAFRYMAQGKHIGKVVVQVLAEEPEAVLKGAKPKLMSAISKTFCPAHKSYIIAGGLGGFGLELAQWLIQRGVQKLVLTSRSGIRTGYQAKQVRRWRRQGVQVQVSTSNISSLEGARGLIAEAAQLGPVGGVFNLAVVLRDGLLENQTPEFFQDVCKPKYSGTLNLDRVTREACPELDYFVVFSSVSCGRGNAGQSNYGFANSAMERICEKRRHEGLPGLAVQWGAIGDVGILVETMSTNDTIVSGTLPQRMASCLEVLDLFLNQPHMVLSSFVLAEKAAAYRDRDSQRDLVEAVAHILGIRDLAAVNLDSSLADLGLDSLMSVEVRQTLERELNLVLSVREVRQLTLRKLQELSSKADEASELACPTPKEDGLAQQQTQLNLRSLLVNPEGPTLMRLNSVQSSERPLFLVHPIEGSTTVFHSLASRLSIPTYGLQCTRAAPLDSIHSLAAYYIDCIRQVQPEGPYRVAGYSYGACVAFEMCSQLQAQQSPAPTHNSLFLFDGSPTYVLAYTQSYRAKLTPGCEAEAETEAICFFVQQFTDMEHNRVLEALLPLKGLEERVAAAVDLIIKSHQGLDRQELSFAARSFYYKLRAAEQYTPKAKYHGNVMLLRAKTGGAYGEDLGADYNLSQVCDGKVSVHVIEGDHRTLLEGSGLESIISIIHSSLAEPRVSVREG

[6] = target: T4, Fatty acid synthase; assay: FAS thioesterase domain inhibitors, dose response, biochemical, kinetic fluorescence intensity (AID 624326); assay type: functional;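 also: rate of fluorescence rise from hydrolysis of a fluorogenic O-methyl fluorescein ester substrate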
[7] = inhibitors of clade B AD8 Env fusion, dose response, cell-based, cherry-pick (AID 652062); assay type: functional;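 also: luciferase signal from cell-cell fusion driven by HIV-1 clade B AD8 Env; potency is for inhibitors of fusion seen as a drop in luminescence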
[8] = inhibitors of HIV Env-driven cell fusion, dose response, cherry-pick (AID 652057); assay type: functional, cell-based
[9] = ZM109 Env clade C HIV-1 fusion inhibitors, dose response, HeLa effector, CEM target cells, luciferase, cherry-pick (AID 652058); assay type: functional, cell-based
[10] = Luminescence Cell-Based Dose Retest to Confirm Inhibitors of Cancer Stem Cells. [Related pubchem assays (depositor defined):AID2717, AID2721]; assay type: functional; settings: Homo sapiens
[11] = tested on: INS1; assay: beta cell apoptosis inhibitors, cytokine rescue, dose response, luminescence, retest (AID 449756); assay type: functional, cell-based; settings: Rattus norvegicus;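 also: cell death triggered by IL-1 beta plus TNF-alpha plus IFN-gamma mixture; protective hits raise ATP signal compared with cytokine alone wells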
[12] = cells; assay type: functional
[13] = target: T5, Replicative DNA helicase DnaB (Mycobacterium tuberculosis, UniProt P9WMR3); assay: DnaB intein splicing inhibitors, dose response, biochemical, cell-free fluorescence (AID 449749); assay type: functional
T5 sequence (P9WMR3 whole entry): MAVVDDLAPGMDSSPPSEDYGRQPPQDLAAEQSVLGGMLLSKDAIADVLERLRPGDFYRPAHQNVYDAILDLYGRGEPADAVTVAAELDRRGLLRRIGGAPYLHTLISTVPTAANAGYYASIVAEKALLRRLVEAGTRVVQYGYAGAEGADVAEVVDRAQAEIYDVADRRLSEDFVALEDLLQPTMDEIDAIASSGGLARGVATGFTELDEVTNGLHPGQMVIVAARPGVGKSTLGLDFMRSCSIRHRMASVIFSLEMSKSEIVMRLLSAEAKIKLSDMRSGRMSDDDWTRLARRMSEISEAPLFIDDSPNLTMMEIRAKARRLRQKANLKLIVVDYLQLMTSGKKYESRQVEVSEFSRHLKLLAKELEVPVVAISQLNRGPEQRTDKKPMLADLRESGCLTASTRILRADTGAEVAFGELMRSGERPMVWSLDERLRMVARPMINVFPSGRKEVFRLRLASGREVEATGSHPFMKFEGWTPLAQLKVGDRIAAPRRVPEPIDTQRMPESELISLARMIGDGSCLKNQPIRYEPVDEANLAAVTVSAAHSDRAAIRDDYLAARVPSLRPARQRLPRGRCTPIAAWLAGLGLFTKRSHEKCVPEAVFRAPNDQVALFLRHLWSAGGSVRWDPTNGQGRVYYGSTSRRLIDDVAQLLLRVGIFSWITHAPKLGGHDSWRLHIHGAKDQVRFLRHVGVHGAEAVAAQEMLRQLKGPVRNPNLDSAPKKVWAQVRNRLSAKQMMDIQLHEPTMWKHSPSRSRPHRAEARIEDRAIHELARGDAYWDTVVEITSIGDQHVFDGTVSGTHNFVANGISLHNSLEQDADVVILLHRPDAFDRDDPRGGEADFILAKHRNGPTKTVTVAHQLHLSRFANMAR

[14] = target: T6, Protein RecA (Mycobacterium tuberculosis, UniProt P9WHJ3); assay: Fluorescence Cell-Free Homogeneous Dose Retest to Identify Inhibitors of RecA-Intein Splicing Activity. [Related pubchem assays (depositor defined):AID2097, AID2223, AID489010, AID492950]; assay type: functional
T6 sequence (P9WHJ3 whole entry): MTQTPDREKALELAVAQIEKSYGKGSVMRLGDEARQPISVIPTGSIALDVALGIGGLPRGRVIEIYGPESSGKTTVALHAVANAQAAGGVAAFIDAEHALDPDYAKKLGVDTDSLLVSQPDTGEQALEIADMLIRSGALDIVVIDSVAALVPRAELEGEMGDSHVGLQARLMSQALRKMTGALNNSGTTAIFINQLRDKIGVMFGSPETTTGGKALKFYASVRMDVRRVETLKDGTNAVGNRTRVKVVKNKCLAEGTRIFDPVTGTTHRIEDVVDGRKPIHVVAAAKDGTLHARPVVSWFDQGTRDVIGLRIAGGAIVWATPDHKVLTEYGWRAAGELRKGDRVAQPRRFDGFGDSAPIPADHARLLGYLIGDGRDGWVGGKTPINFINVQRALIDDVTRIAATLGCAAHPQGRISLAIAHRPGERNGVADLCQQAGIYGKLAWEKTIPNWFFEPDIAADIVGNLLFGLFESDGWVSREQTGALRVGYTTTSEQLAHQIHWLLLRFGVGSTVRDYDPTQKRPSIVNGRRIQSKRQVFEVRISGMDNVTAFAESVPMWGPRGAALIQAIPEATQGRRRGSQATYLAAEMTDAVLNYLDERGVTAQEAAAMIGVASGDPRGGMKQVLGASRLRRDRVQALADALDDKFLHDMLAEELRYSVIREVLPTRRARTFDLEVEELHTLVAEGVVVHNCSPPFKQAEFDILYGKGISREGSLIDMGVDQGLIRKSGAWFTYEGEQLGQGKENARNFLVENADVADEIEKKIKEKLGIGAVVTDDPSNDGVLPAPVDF

[15] = target: Large T antigen (Simian virus 40, UniProt P03070); assay type: functional, Betapolyomavirus macacae;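 also: Confirmatory-stage PubChem screen for compounds that inhibit SV40 T antigen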
Sequence of Large T antigen (P03070 whole entry): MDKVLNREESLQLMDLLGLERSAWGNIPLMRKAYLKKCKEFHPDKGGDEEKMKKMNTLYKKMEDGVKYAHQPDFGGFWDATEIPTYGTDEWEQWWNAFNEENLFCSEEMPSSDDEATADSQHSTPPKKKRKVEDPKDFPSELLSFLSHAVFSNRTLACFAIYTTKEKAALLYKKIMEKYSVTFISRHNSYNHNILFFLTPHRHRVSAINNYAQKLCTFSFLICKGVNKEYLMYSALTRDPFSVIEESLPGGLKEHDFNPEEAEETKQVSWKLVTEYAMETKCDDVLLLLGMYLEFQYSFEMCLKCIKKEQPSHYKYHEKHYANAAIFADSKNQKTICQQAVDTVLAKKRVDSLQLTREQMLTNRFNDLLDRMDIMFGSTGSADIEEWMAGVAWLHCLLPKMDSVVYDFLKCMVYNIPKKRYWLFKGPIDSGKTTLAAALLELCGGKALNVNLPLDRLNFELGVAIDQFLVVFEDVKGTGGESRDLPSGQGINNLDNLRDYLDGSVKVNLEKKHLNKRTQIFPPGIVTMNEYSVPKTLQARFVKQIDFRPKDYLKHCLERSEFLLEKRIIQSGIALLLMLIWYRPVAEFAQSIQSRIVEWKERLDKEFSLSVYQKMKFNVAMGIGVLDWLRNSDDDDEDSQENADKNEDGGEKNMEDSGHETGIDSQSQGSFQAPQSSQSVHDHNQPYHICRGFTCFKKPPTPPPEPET

T1 sequence (P11940 whole entry): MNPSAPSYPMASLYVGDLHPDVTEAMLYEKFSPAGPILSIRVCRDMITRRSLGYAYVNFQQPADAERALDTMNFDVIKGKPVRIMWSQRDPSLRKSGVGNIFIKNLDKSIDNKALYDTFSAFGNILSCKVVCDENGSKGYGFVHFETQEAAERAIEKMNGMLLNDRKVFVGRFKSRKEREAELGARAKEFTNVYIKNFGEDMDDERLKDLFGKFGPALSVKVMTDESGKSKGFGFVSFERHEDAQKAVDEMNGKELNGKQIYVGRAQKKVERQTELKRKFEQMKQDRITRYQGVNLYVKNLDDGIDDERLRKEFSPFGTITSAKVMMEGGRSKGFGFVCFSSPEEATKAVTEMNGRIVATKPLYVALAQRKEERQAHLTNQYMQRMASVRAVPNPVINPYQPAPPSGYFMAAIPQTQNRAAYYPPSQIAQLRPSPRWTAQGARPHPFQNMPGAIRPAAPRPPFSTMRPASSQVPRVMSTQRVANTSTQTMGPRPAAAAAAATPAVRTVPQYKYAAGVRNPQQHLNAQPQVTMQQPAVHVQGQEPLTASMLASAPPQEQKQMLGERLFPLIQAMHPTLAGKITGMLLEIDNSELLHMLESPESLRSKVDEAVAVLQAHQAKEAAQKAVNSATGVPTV

With `O=C(/C=C/c1cccc([N+](=O)[O-])c1)NC(=S)Nc1ccc(CN2CCOCC2)cc1` the IC50 [1] was > 66 µM (inactive), the EC50 [2] was 14.6 µM (active) and the IC50 [3] was > 66 µM (inactive).

With `Cc1cc([N+](=O)[O-])cc2c1NC(=O)C2(O)N1CCOCC1` (stereo not given) the AC50 [4] was 15.7 µM (active).

With `O=C(OCC(=O)N1CCN(c2ccccc2)CC1)c1cccc([N+](=O)[O-])c1` the IC50 [5] was 7.7 µM (active) and the IC50 [6] was 11.9 µM (active).

With `Cc1oc(-c2ccccc2F)nc1CN1CCC(C(=O)NCCC2=CCCCC2)CC1` the AC50 [7] was 1.28 µM (active), the AC50 [8] was 5.29 µM (active) and the AC50 [9] was 4.91 µM (active).

In the case of `O=C(COC(=O)c1cc([N+](=O)[O-])ccc1N1CCOCC1)NCCc1ccccc1`, the IC50 [5] is reported as 1.98 µM (active) and the IC50 [6] is reported as 2.6 µM (active).

In the case of `O=S(=O)([N-]c1nc2ccccc2nc1-[n+]1ccc(Cc2ccccc2)cc1)c1ccc(Br)s1`, the IC50 [1] is reported as 52.3 µM (inactive), the AC50 [10] is reported as 6.23 µM (active) and the IC50 [3] is reported as > 66 µM (inactive). The AC50 [11] was 6.81 µM (active).

For `CC(NC(=O)c1cc([N+](=O)[O-])cc([N+](=O)[O-])c1)c1ccc(-n2ccnc2)cc1` (stereo not given), the IC50 [5] was 10.1 µM (active), the IC50 [12] was 1.43 µM (active) and the IC50 [6] was 6.68 µM (active).

For `CNCc1ccc(OCc2ccccc2)c(OC)c1`, the AC50 [4] was > 20 µM (inactive).

For `COc1ccc([N+](=O)[O-])cc1C(=O)NCCOc1ccc(Cl)cc1`, the IC50 [5] was 5.95 µM (active) and the IC50 [6] was 7.34 µM (active).

For `N#Cc1cc(Oc2ccc(Cl)cc2)c(N2CCOCC2)cc1C#N`, the IC50 [5] was 4.35 µM (active) and the IC50 [6] was 4.83 µM (active).

For `CCN1Cc2c(/C=C/c3ccccc3)nc3ccc(OC)cc3c2N(c2cccc(Cl)c2)C1`, the AC50 [13] was > 380 µM (inactive), the IC50 [5] was 2.35 µM (active) and the EC50 [14] was 17.6 µM (active). For the same compound, the IC50 [6] was 3.61 µM (active).

In the case of `CCc1ccc(C2CC(=O)N3CN(c4ccccc4)CSC3=C2C#N)cc1` (stereo not given), the IC50 [15] is reported as 70.1 µM (active).

For `CNCc1ccccc1OCc1ccc(F)cc1`, the AC50 [4] was > 20 µM (inactive).

In the case of `O=[N+]([O-])c1cccc(CN2CC=C(c3ccc(F)cc3)CC2)c1`, the IC50 [5] is reported as 11.4 µM (active) and the IC50 [6] is reported as 9.86 µM (active).

For `COc1ccc(S(=O)(=O)Nc2ccc3c(c2)CC(=O)N([C@@H](C)CO)C[C@H](C)[C@H](CN(C)S(=O)(=O)c2ccc(F)cc2)O3)cc1`, the AC50 [7] was 18.6 µM (active), the AC50 [8] was 10 µM (active) and the AC50 [9] was 11.4 µM (active).

For `CCN(CC)CCSc1nc2ccccc2c(=S)n1-c1ccccc1`, the AC50 [4] was > 20 µM (inactive).
